Source: the RepoRT retention time repository (doi:10.1016/j.jhazmat.2019.121712)

Experiment: Thermo Scientific Acclaim RSLC 120 C18, 100 × 2.1 mm, 2.2 µm, 30 °C; A: 90% water + 10% methanol + 0.01% formic acid + 5 mM ammonium formate; B: methanol + 0.01% formic acid + 5 mM ammonium formate; gradient (min/%B) 0.1/1 3/39 14/99.9 16/99.9
Conditions: stereoisomer not certain

Point of comparison: `COC(=O)Nc1nc2ccc(C(=O)c3ccccc3)cc2[nH]1`, LC retention time 8.25 min. Against it:
- COC12CCC3(CC1C(C)(O)C(C)(C)C)C1Cc4ccc(O)c5c4C3(CCN1CC1CC1)C2O5 (stereo not drawn) — within 1.5-fold, 7.96 min
- CNc1c(C)n(C)n(-c2ccccc2)c1=O — 1.7-fold lower, 4.74 min
- COc1cc(OC)nc(NC(=O)NS(=O)(=O)c2ncccc2C(=O)N(C)C)n1 — within 1.5-fold, 6.62 min
- CN(C)CCCN1c2ccccc2CCc2ccccc21 — within 1.5-fold, 8.08 min
- Cc1cccc(Nc2ccccc2C(=O)O)c1C — within 1.5-fold, 11.6 min
- CC(CN1CCN(CCOCCO)CC1)CN1c2ccccc2Sc2ccccc21 (stereo not drawn) — within 1.5-fold, 9.08 min
- COc1ccc2cccc(CCNC(C)=O)c2c1 — within 1.5-fold, 8.68 min
- CCOP(=S)(OCC)SCSP(=S)(OCC)OCC — 1.5-fold higher, 12.4 min
- NC(=O)C1CCCN1 (stereo not drawn) — 6.3-fold lower, 1.31 min
- COC(=O)C1=C(C)NC(C)=C(C(=O)OC(C)C)C1c1cccc2nonc12 (stereo not drawn) — within 1.5-fold, 9.61 min
- Cc1ccccc1N1CCN(CCc2nnc3n2CCCC3)CC1 — within 1.5-fold, 5.66 min
- CCCCC(CC)COC(=O)C(C#N)=C(c1ccccc1)c1ccccc1 (stereo not drawn) — 1.6-fold higher, 13.4 min
- Cc1ccc(C(=O)c2ccc(CC(=O)O)n2C)cc1 — within 1.5-fold, 7.89 min
- CC(C(=O)c1ccc2c(c1)OCO2)N(C)C (stereo not drawn) — 2.2-fold lower, 3.78 min
- CNC(=O)Oc1cccc2c1OC(C)(C)O2 — within 1.5-fold, 7.02 min
- COc1ccc(CN(CCN(C)C)c2ccccn2)cc1 — within 1.5-fold, 5.89 min
- CCCc1nn(C)c2c(=O)[nH]c(-c3cc(C(=O)CN4CCN(CC)CC4)ccc3OCC)nc12 — within 1.5-fold, 7.01 min
- CCC(CO)NC(=O)C1C=C2c3cccc4[nH]cc(c34)CC2N(C)C1 (stereo not drawn) — 1.9-fold lower, 4.34 min
- CCCCCn1nc(C(=O)NC(C(N)=O)C(C)(C)C)c2ccccc21 (stereo not drawn) — within 1.5-fold, 11.2 min
- O=C1CC2OCC=C3CN4CCC56c7ccccc7N1C5C2C3CC46 (stereo not drawn) — 2-fold lower, 4.16 min
- Cn1c(=O)c2[nH]cnc2n(C)c1=O — 2.1-fold lower, 3.93 min
- Cc1ccc(NS(=O)(=O)N(C)C)cc1 — within 1.5-fold, 7.25 min
- COC(=O)c1ccccc1S(=O)(=O)NC(=O)N(C)c1nc(C)nc(OC)n1 — within 1.5-fold, 7.94 min
- CCN(CC)C(=O)C1C=C2c3cccc4c3C(O)(CC2N(C)C1)C(=O)N4 (stereo not drawn) — 2-fold lower, 4.23 min
- CCCCCC(C)N (stereo not drawn) — 1.6-fold lower, 5.01 min
- CCSc1ccc2c(c1)N(CCCN1CCN(C)CC1)c1ccccc1S2 — within 1.5-fold, 10.4 min
- CCCc1nn(C)c2c(=O)[nH]c(-c3cc(C(=O)CN4CCN(CC=Cc5ccccc5)CC4)ccc3OCC)nc12 — within 1.5-fold, 9.28 min
- CC(C)N(Cc1ccccc1)C(=O)C(C)(C)C — within 1.5-fold, 10.2 min
- CCc1cc(OC)c(CCN)cc1OC — within 1.5-fold, 6.48 min
- CN(C)CCCn1c2c(c3ccccc31)CCCCCC2 — within 1.5-fold, 9.26 min
- COc1cc(NS(=O)(=O)c2ccc(NC(C)=O)cc2)nc(OC)n1 — within 1.5-fold, 6.23 min
- CN1CCC(OC(c2ccccc2)c2ccccc2)CC1 — within 1.5-fold, 7.23 min
- CN(C)CCc1c[nH]c2ccc(O)cc12 — 2.9-fold lower, 2.82 min
- CCCCCn1cc(C(=O)Oc2cccc3cccnc23)c2ccccc21 — within 1.5-fold, 11.9 min
- CCCOC(=O)NCCCN(C)C — 2.4-fold lower, 3.5 min
- Cc1ncc(CSSCc2cnc(C)c(O)c2CO)c(CO)c1O — within 1.5-fold, 5.54 min
- CCOC(=O)C1(c2ccccc2)CCC=CC1NC (stereo not drawn) — 1.6-fold lower, 5.28 min
- NC(N)=NC(N)=NCCc1ccccc1 — 1.9-fold lower, 4.38 min
- CCCCCn1cc(C(=O)Cc2ccc(OC)cc2)c2ccccc21 — within 1.5-fold, 11.6 min
- COc1ccc2[nH]cc(CCNC(C)=O)c2c1 — 1.5-fold lower, 5.36 min
- CC(N)Cc1ccc2[nH]ccc2c1 (stereo not drawn) — 2-fold lower, 4.07 min
- COP(=S)(OC)Oc1ccc(S(=O)(=O)N(C)C)cc1 — within 1.5-fold, 7.99 min
- Cc1cc(C2CC2)nc(Nc2ccccc2)n1 — within 1.5-fold, 11 min
- O=C1OCCN1N=Cc1ccc([N+](=O)[O-])o1 — 2-fold lower, 4.19 min
- CCNC(C)C(=O)c1ccc(C)cc1 (stereo not drawn) — 1.7-fold lower, 4.74 min
- COc1cc(Cc2cnc(N)nc2N)cc(OC)c1OC — 2-fold lower, 4.06 min
- CCCc1nn(C)c2c(=O)[nH]c(-c3cc(C(=O)CN4CCN(CCO)CC4)ccc3OCC)nc12 — within 1.5-fold, 6.94 min
- CC12CCC3c4ccc(O)c(O)c4CCC3C1CCC2=O (stereo not drawn) — within 1.5-fold, 8.69 min
- COc1cc(C=C2CCCC(=Cc3ccc(O)c(OC)c3)C2=O)ccc1O — within 1.5-fold, 9.59 min
- CC(C)(C)N1CCC(c2ccccc2)(c2ccccc2)CC1 — within 1.5-fold, 6.72 min
- CCCCCn1cc(C(=O)c2ccc(CC)c3ccccc23)c2ccccc21 — 1.6-fold higher, 13.2 min
- CNCCC(c1ccccc1)c1ccccn1 (stereo not drawn) — within 1.5-fold, 5.79 min
- CC(Cc1ccc(C(C)C(=O)O)cc1)C(=O)O (stereo not drawn) — within 1.5-fold, 6.99 min
- Cc1cccc(C)c1OCC(C)N (stereo not drawn) — within 1.5-fold, 5.59 min
- CC(C)(C)NC(=O)C1CN(Cc2cccnc2)CCN1CC(O)CC(Cc1ccccc1)C(=O)NC1c2ccccc2CC1O (stereo not drawn) — within 1.5-fold, 9.79 min
- CC1=C(C(=O)Nc2ccccc2)S(=O)(=O)CCO1 — within 1.5-fold, 5.59 min
- CNC(C)Cc1ccc(O)c(OC)c1 (stereo not drawn) — 2.6-fold lower, 3.19 min
- CN(C)C(=O)NC1CCCCCCC1 — within 1.5-fold, 8.47 min
- c1ccc2c(c1)CCCC2C1=NCCN1 (stereo not drawn) — 1.8-fold lower, 4.47 min
- Cc1nccn1CC1CCc2c(c3ccccc3n2C)C1=O (stereo not drawn) — 1.7-fold lower, 4.98 min
- CC(=O)c1ccc2c(c1)N(CC(C)N(C)C)c1ccccc1S2 (stereo not drawn) — within 1.5-fold, 7.26 min
- COC1=CC(=O)OC(C=Cc2ccccc2)C1 (stereo not drawn) — within 1.5-fold, 8.32 min
- COCc1cnc(C2=NC(C)(C(C)C)C(=O)N2)c(C(=O)O)c1 (stereo not drawn) — 1.8-fold lower, 4.63 min
- CNCC(C)CN1c2ccccc2Sc2ccc(OC)cc21 (stereo not drawn) — within 1.5-fold, 8.33 min
- CNC(=O)Oc1cc(C)c(N(C)C)c(C)c1 — within 1.5-fold, 9.3 min
- Cc1ccc(C(=CCN2CCCC2)c2ccccn2)cc1 — within 1.5-fold, 6.28 min
- CC1C=CC=CCCC=CC=CC=CC=CC(OC2OC(C)C(O)C(N)C2O)CC2OC(O)(CC(O)C(O)CCC(O)CC(O)CC(O)CC(=O)OC(C)C(C)C1O)CC(O)C2C(=O)O (stereo not drawn) — within 1.5-fold, 10.3 min
- CCCCCn1cc(C(=O)c2cccc3ccccc23)cc1-c1ccccc1C — 1.6-fold higher, 13.4 min
- COc1cc2c(cc1OC)C(=O)C(CC1CCN(Cc3ccccc3)CC1)C2 (stereo not drawn) — within 1.5-fold, 5.81 min
- Nc1nc(N)c2nc(-c3ccccc3)c(N)nc2n1 — 1.8-fold lower, 4.68 min
- C=CC(N)CCC(=O)O (stereo not drawn) — 6-fold lower, 1.38 min
- COC(=O)c1ccccc1C(=O)OC — within 1.5-fold, 6.63 min
- CCc1cccc(CC)c1N(COC)C(=O)CS(=O)(=O)O — within 1.5-fold, 7.19 min
- CCC(C(=O)c1ccc2c(c1)OCO2)N1CCCC1 (stereo not drawn) — 1.8-fold lower, 4.49 min
- CCCCCCCn1cc(C(=O)c2cccc3ccccc23)c2ccccc21 — 1.6-fold higher, 13.4 min
- CCCCC1C(=O)N(c2ccccc2)N(c2ccccc2)C1=O — within 1.5-fold, 8.98 min
- CN1CCC(=C2c3ccccc3CCc3cccnc32)CC1 — within 1.5-fold, 5.99 min
- CC=CCC1=C(C)C(OC(=O)C2C(C=C(C)C)C2(C)C)CC1=O (stereo not drawn) — 1.6-fold higher, 12.9 min
- COc1ccc(Oc2ccc(NC(=O)N(C)C)cc2)cc1 — within 1.5-fold, 8.43 min
- CSc1nnc(C(C)(C)C)c(=O)n1N — within 1.5-fold, 7.07 min
- CCCCNC(=O)n1c(NC(=O)OC)nc2ccccc21 — 1.5-fold lower, 5.46 min
- Cc1c(NC=O)c(=O)n(-c2ccccc2)n1C — 2.1-fold lower, 3.96 min
- CC(C)Nc1nc(NC(C)C)[nH]c(=O)n1 — within 1.5-fold, 5.96 min
- CN(C)C(=N)N=C(N)N — 5.9-fold lower, 1.39 min
- CCCCCc1cc(O)c2c(c1)OC(C)(C)C1CCC(C(=O)O)=CC21 (stereo not drawn) — 1.5-fold higher, 12.5 min
- COc1ccc2c3c1OC1C(O)C=CC4C(C2)NCCC341 (stereo not drawn) — 2.4-fold lower, 3.5 min
- COC=C(C(=O)O)c1ccccc1Oc1cc(Oc2ccccc2C#N)ncn1 — within 1.5-fold, 8.18 min
- CCSC(=O)N(CC(C)C)CC(C)C — within 1.5-fold, 12 min
- CCNc1nc(NC(C)C)nc(SC)n1 — within 1.5-fold, 9.16 min
- CCOC1Oc2ccc(OS(C)(=O)=O)cc2C1(C)C (stereo not drawn) — within 1.5-fold, 9.14 min
- CC(NCCc1ccc(O)cc1)C(O)c1ccc(O)cc1 (stereo not drawn) — 2.2-fold lower, 3.79 min
- Cc1ccccc1C(OCCN(C)C)c1ccccc1 (stereo not drawn) — within 1.5-fold, 7.44 min
- Cc1nnc(-c2ccccc2)c(=O)[nH]1 — 1.6-fold lower, 5.29 min
- CNC(=O)Oc1ccccc1C1OCCO1 — 1.6-fold lower, 5.16 min
- CN(C)CCc1ccc(O)cc1 — 3.6-fold lower, 2.28 min
- CC#Cc1cc(C)nc(Nc2ccccc2)n1 — within 1.5-fold, 10.2 min
- COCCCNc1nc(NC(C)C)nc(SC)n1 — within 1.5-fold, 9.14 min
- CC12CCC3C(CCC4=CC(=O)CCC43C)C1CCC2=O (stereo not drawn) — within 1.5-fold, 9.36 min
- CCC(C)(CC)c1cc(NC(=O)c2c(OC)cccc2OC)on1 — within 1.5-fold, 9.42 min
- CCC(C)C(=O)OC1CC(C)C=C2C=CC(C)C(CCC3CC(O)CC(=O)O3)C21 (stereo not drawn) — within 1.5-fold, 12 min
- CN1CCN(CCC=C2c3ccccc3Sc3ccc(S(=O)(=O)N(C)C)cc32)CC1 — within 1.5-fold, 8.38 min
- Nc1nc2c(ncn2CCC(CO)CO)c(=O)[nH]1 — 2.8-fold lower, 2.98 min
- CNC(=O)Oc1cc(C)cc(C(C)C)c1 — within 1.5-fold, 9.51 min
- CCC(CC)(CNC(=O)CCCO)c1cccc(OC)c1 — within 1.5-fold, 8.98 min
- COc1ccc2c3c1OC1C(OC(C)=O)=CCC4C(C2)N(C)CCC314 (stereo not drawn) — 1.8-fold lower, 4.47 min
- C=C1CC(=CC)C(=O)OC2CCN3CC=C(COC(=O)C1(C)O)C23 (stereo not drawn) — 2-fold lower, 4.17 min
- Cc1cccc(C)c1OCC(=O)NC(Cc1ccccc1)C(O)CC(Cc1ccccc1)NC(=O)C(C(C)C)N1CCCNC1=O (stereo not drawn) — within 1.5-fold, 11.8 min
- CC(CN1c2ccccc2Sc2ccccc21)N(C)C (stereo not drawn) — within 1.5-fold, 7.53 min
- Cc1ccc(N=Nc2c(O)ccc3ccccc23)c(C)c1 — 1.8-fold higher, 14.9 min
- COC(=O)NC(=S)Nc1ccccc1NC(=S)NC(=O)OC — within 1.5-fold, 6.93 min
- CCCCCCCCCc1ccc(OCCOCCO)cc1 — 1.7-fold higher, 13.8 min
- CCCCNc1ccc(C(=O)OCCN(C)C)cc1 — within 1.5-fold, 6.43 min
